From patent US20140096445A1, “METHOD OF CULTIVATION IN WATER DEFICIT CONDITIONS” (SYNGENTA PARTICIPATIONS AG, priority 2011, published 2014)
Marks after values point to notes of the source that are not given here.

Legend:
Type in all cases: in vivo
corn [1] = experiment: Greenhouse subsurface drip irrigation trial, deficit irrigated, Examples 4-8; details: for % Yield Increase by Product over Untr./50% Irr. / Yield: SDI chemigated at V3/V4, 50% irrigated deficit, Azoxystrobin 261, PPZ 126, TXP 250, PBZ 12.5, TMX 70 gai/ha; for Yield compared with the control, in words: water stress regime (50% irrigated), SDI
Experimental: A greenhouse subsurface drip irrigation trial was conducted on corn to evaluate treatment effects on yield in fully irrigated vs. deficit irrigated conditions. In this experiment, standardized growth conditions were applied across all corn treatments including: soil-water availability, soil texture and composition, soil chemical and physical properties, meteorological and environmental parameters, and plant nutrition in a greenhouse. No indication of plant disease or pest damage was observed over the course of the study and no pest management program was necessary. A homogeneous sand-organic matter soil mixture (0.18% organic matter) was used as the growth medium in 55-gal containers. These containers were used as a weighing lysimeter, where daily changes in system weight were used to calculate plant transpiration. Four corn plants were grown in each 55-gal container. Three 55-gal containers (12 plants total) made up each treatment. All irrigation and chemical treatments were applied via sub-surface irrigation. Chemical treatments consisted of: azoxystrobin (Quadris), paclobutrazol (Trimmit), trinexapac-ethyl (Moddus), and propiconazole (Tilt) at maximum labeled rates.
Corn plants were grown from seed and transplanted in the 55-gal drums approximately 14 days after planting. Uniform adequate irrigation was applied up to growth stage V3/V4 to ensure plant establishment. Chemical treatment applications were applied at growth stage V3/V4 via sub-surface chemigation. At stage V3/V4, irrigation was decreased to replicate deficit water conditions across all treatments for the remainder of the study period. Irrigation was managed daily to maintain 50% plant-available water. Visual signs of abiotic plant stress were observed approximately 30 days after chemical application. All corn plants were grown to yield and cobs were harvested when kernels were uniformly dry (15% moisture content). Root architecture, specifically relative number of fine roots, was measured at within 2 weeks of harvest using a digital imaging technique. Fine roots are related to water uptake productivity, which is directly tied to the ability of the plant to access soil-water under stress.

corn [2] = experiment: SDI split plot field study, 113 day maturity corn hybrid, Examples 13-14; details: 50% irrigated deficit
Experimental: A randomized complete block (split plot) study using Subsurface Drip Irrigation (SDI) was conducted on a deep silt loam soil using a 113 day maturity corn hybrid. This trial was conducted to quantify the impact of treatments on grain yield and water productivity of corn under limited (deficit) and fully-irrigated setting. The study utilized a subsurface drip irrigation (SDI) system with a nominal dripline flowrate of 0.25 gpm/100 ft for a 5-ft dripline spacing and 24-inch emitter spacing, installed at a depth of 16-18 inches. Irrigation control panels, chemical injection pumps, and filters were housed at the irrigation well house to manage irrigation and chemigation events.
The field study was set up as a randomized complete plot design with three replications on silt loam soil.
Each plot was 8 rows wide (6.1 meters) by 15 meters long. Soil water status was monitored throughout the growing season using soil moisture sensors. Corn seed was planted with a precision planter at a depth of 2 inches and rows spaced at 30 inches. The planting population was 30,000 seeds per acre. Testing parameters, and irrigation levels were conducted according to the Kansas State University experimental procedure [see, e.g.,: (1) Lamm, F. R., A. J. Schlegel, and G. A. Clark. 2003. Development of a Best Management Practice for Nitrogen Fertigation of Corn Using SDI. Appl. Engr in Agric. and (2) Lamm, F. R., H. L. Manges, L. R. Stone, A. H. Khan, and D. H. Rogers. 1995. Water requirement of subsurface drip-irrigated corn in northwest Kansas. Trans. ASAE, 38(2):441-448.]. Moisture levels, irrigation levels, evapotranspiration, and plant health were measured throughout the growing season. Climatic variables were measured (air temperature, rainfall, solar and net radiation, relative humidity, rainfall, wind speed and direction) throughout the season.
Irrigation for the fully irrigated treatments was scheduled according to need by a climatic water budget using calculated evapotranspiration as a withdrawal and with rainfall and irrigation as deposits. Irrigation amounts for each event for the fully irrigated plots were generally 0.5 inches for each event. The deficit irrigation treatments were scheduled at approximately 50% of the fully irrigated plots (5.9 inches/acre vs. 13.55 inches of water/acre). Volumetric soil water content was measured in one-foot increments to a depth of 8 ft on an approximately weekly basis throughout the crop season to determine total water use. Crop water use was calculated as the sum of irrigation, precipitation and changes in soil water between the initial and final soil water sampling dates. Water productivity was calculated as the crop yield divided by the seasonal water use. Maintenance crop protection products were applied as needed to manage weeds and pests throughout the season for all treatments including the control. Moddus (trinexapac-ethyl) was foliar-applied (tractor mounted sprayer) twice at a rate of 250 gai/ha at approximately the V3+V7 stages of the corn. Azoxystrobin (Quadris) was applied twice via drip irrigation at a rate of 0.8 fl. oz/1000 linear ft (261 gai/ha) at approximately V6 & R1 stages of the corn. Crop yield from each replication was recorded after harvest and adjusted to 15% moisture content. Corn yield components of crop grain yield, plants/area, ears/plant, and kernel weight were measured by hand harvesting a representative sample (20 feet long for one crop row near the center of each subplot).

corn [3] = experiment: SDI chemigation field study on grain yield under rainfed conditions, Examples 17-19; details: for Yield: optimum nitrogen rate 200 lbs. N/acre
Experimental: A chemigation study using Subsurface Drip Irrigation (SDI) was conducted to quantify the impact of treatment effects on grain yield under rainfed conditions. The field study was set up as a randomized complete plot design (split plot) with three replications on silt loam soil. Each plot was 8 rows wide (6.1 meters) by 34 meters long. Soil water status was monitored on an hourly basis every 30 cm up to 1.2 meters throughout the growing season using soil moisture sensors. Corn seed was planted with a precision planter at a depth of 2 inches and rows spaced at 30 inches. The planting population was 30,000 seeds per acre. Testing parameters and harvesting were conducted according to the University of Nebraska experimental procedure (see, e.g.,: Irmak, S, D. Z. Haman, and R. Bastug. Determination of Crop Water Stress Index for irrigation Timing and Yield Estimation of Corn. 2000. Agronomy Journal. 92:1221-1227). Moisture levels, evapotranspiration, and plant health were measured throughout the growing season. All microclimatic variables were measured (air temperature, rainfall, solar and net radiation, relative humidity, rainfall, wind speed and direction) so that the researcher could quantify the range of the microclimatic conditions under which this research was conducted to define the boundaries of experimental conditions.
No irrigation was applied to rainfed plots. […] Maintenance crop protection products were applied as needed to manage weeds and pests throughout the season for all treatments including the control. Azoxystrobin (Quadris) was applied twice via drip irrigation at a rate of 0.8 fl. oz/1000 linear ft (261 gai/ha) or by foliar application (tractor mounted sprayer) at 14 fl. oz./acre (261 gai/ha) at approximately the V6 & R1 stages of the corn. Moddus (trinexapac-ethyl) was foliar-applied (tractor mounted sprayer) once at a rate of 250 gai/ha at approximately the V7 stage of the corn. Crop yield from each replication was recorded after harvest and adjusted to 15.5% moisture content.

[4] = 250 gai/ha, foliar applied once (V7), 0% irrigated

Structure (SMILES): CO/C=C(/C(=O)OC)c1ccccc1Oc1cc(Oc2ccccc2C#N)ncn1 [Azoxystrobin, azoxystrobin]
- % Yield Increase by Product over Untr./50% Irr. (corn [1]): +12.5% Incr. over Untr./50% Irr.
- Yield (corn [1]): 2077† Kg/Ha
- Yield compared with the control, in words (corn [1]): statistically higher than the control
- Yield (corn [2]; 261 gai/ha, SDI chemigated twice (V6 & R1)): 212^ Bu./acre
- % Yield Increase by Product over Untr./50% irr. (corn [2]; 261 gai/ha, SDI chemigated): +16% Incr. over
- % increase in Water Productivity by Product over 50% irr. (corn [2]; 261 gai/ha, SDI chemigated): +18% Incr.
- Water Prodctivity (IWUE) (corn [2]; 261 gai/ha, SDI chemigated): 426 pounds of corn per inch of water applied
- Yield (corn [3]; 261 gai/ha, SDI chemigated (V6 & R1), 0% irrigated dryland/rainfed): 145.4 Bu./acre
- % Yield Increase by Product over Untr./0% irr. (corn [3]; 261 gai/ha, SDI chemigated, 0% irrigated dryland/rainfed): +7% incr over Untr./0% irr.
- Yield (corn [3]; 261 gai/ha, foliar applied (V6 & R1), 0% irrigated dryland/rainfed): 151.1 Bu./acre
- % Yield Increase by Product over Untr./0% irr. (corn [3]; 261 gai/ha, foliar applied, 0% irrigated dryland/rainfed): +11% incr over Untr./0% irr.

Structure (SMILES): CCOC(=O)C1CC(=O)C(=C(O)C2CC2)C(=O)C1 (stereo not shown) [TXP, trinexapac-ethyl]
- % Yield Increase by Product over Untr./50% Irr. (corn [1]): +15.6% Incr. over Untr./50% Irr.
- Yield (corn [1]): 2133† Kg/Ha
- Yield compared with the control, in words (corn [1]): statistically higher than the control
- Yield (corn [2]; 250 gai/ha, foliar-applied twice (V3+V7)): 235 Bu./acre
- % Yield Increase by Product over Untr./50% irr. (corn [2]; 250 gai/ha, foliar-applied): +28% Incr. over
- Water Prodctivity (IWUE) (corn [2]; 250 gai/ha, foliar-applied): 462 pounds of corn per inch of water applied
- % Yield Increase by Product over Untr./0% irr. (corn [3]; [4]): +4% incr over Untr./0% irr.
- Yield (corn [3]; [4]): 141.9 Bu./acre
